# Test results as given in patent US20250002450A1, “CATIONIC STEROID COMPOUNDS, METHOD OF OBTAINING THEREOF, FORMULATIONS COMPRISING THEREOF AND THEIR USES” (UNIVERSIDADE DO PORTO, priority 2021, published 2025).
# Read-outs that look alike come from different tables or passages of the source.
# Assays:
# Test in all cases: Antifungal MIC/MLC (broth microdilution)
# A. fumigatus C111 = assay type: cell-based, Aspergillus fumigatus; details: A. fumigatus C111, resistant to azoles
# Description: (§1) The antifungal activity of compound 1 was evaluated for a wide range of fungal species, covering yeasts and filamentous fungi, including dermatophytes. […] This antimicrobial effect was fungicidal, with minimal lethal concentrations (MLC) being equal to, or one or two-fold higher than the respective MIC. Twenty-three fungal strains were used in this study, including reference strains and clinical isolates of yeasts and filamentous fungi. Yeast strains included reference strains (ATCC—American Type Culture Collection and CECT—Colección Española de Cultivos Tipo) and clinical isolates: C. albicans ATCC 10231, Candida krusei ATCC 6258, C. albicans H37, C. albicans FF172, C. albicans FF176, C. albicans DSY294, C. albicans DSY296, C. glabrata DSY562, C. glabrata DSY565 and Cryptococcus neoformans CECT 1078. Filamentous fungi included Aspergillus fumigatus ATCC 240305, A. fumigatus C111, A. niger ATCC 16404, A. flavus F44, Fusarium solani FF125, F. oxysporum FF115, and dermatophytes Trichophyton rubrum FF5, T. mentagrophytes FF7, Microscoporum canis FF1 and Nannizzia gypsea FF3 (formerly Microsporum gypseum) and a species of genera Mucor, Lichetheimia and Scedosporium. Saprolegnia parasitica CBS 223.65, a reference strain of an oomycete fish pathogen, was also included. All microorganisms were kept in Sabouraud Dextrose Broth (SDB: BioMérieux, Marcy L'Etoile, France) plus glycerol (20%) at −80° C. The strains were kept in Sabouraud Dextrose Agar (SDA: BioMérieux, Marcy L'Etoile, France) slants and were sub-cultured in SDA before each test. S. parasitica was kept in Corn Meal Agar plates (CMA: BBL™ Corn Meal Agar, BD, Le Pont-de-Claix, France) and was sub-cultured in CMA before each experiment. C. albicans H37, was kindly provided by Cidilia Pina Vaz (CHSJ, Porto, Portugal) and C. albicans DSY294, C. albicans DSY296, C. glabrata DSY562, C. glabrata DSY565 were kindly provided by D. Sanglard (University of Lausanne, Switzerland). A stock solution of compound 1 (10 mg/mL), was prepared in dimethyl sulfoxide (DMSO 99%: Alfa Aesar, Kandel, Germany), kept at −20 degrees C., and freshly diluted in the appropriate culture media before each assay. In all experiments, in-test concentrations of DMSO were kept below 2%. Fluconazole (Alfa Aesar, Ward Hill, MA, USA) was tested as commercial antifungal.
# (§2) Antifungal activity was evaluated by determining the MIC of compound 1 by the broth microdilution method, according to CLSI guidelines (reference documents M27-A3 for yeasts and M38-A2 for filamentous fungi). […] The minimal lethal concentration (MLC) was determined by spreading 20 μL of culture collected from wells showing no visible growth on SDA plates. The MLC was determined as the lowest concentration showing complete growth inhibition after 48 h at 35 degrees C., 48 h at 25 degrees C. […]
# C. krusei ATCC 6258 = assay type: cell-based, Candida krusei
# Description: as §1, §2
# Fusarium solani FF125 = assay type: cell-based
# Description: as §1
# (§3) Antifungal activity was evaluated by determining the MIC of compound 1 by the broth microdilution method, according to CLSI guidelines (reference documents M27-A3 for yeasts and M38-A2 for filamentous fungi). Briefly, cell or spore suspensions were prepared in RPMI-1640 broth medium (Biochrom, Berlin, Germany) buffered with 3-(N-morpholino)propane sulfonic acid (MOPS) (Sigma-Aldrich, St. Louis, MO, USA) (henceforth referred to as RPMI) from fresh cultures of the different strains of fungi. For yeasts, the inoculum was adjusted to 0.5-2.5×10^3 CFU/mL. For filamentous fungi, the inoculum was adjusted to 1-3×10^3 CFU/mL for dermatophytes, and 0.4-5×10^4 CFU/mL for all other strains. […] Sterility and growth controls were included in each assay. The 96-well flat-bottomed untreated polystyrene microtiter plates which were incubated for 48 h at 35° C., with the exception of Lichetheimia spp. which was incubated at 25° C. for 48 h, and the dermatophyte strains, which incubated for 5-7 days at 25° C. […] Voriconazole (kindly provided by Pfizer Ldt., UK) MIC for C. krusei ATCC 6258 was used as quality control and the assays were validated when the results obtained were within the recommended limits. The minimal lethal concentration (MLC) was determined by spreading 20 μL of culture collected from wells showing no visible growth on SDA plates. The MLC was determined as the lowest concentration showing complete growth inhibition after 48 h at 35 degrees C., 48 h at 25 degrees C. (Lichetheimia spp.) or 5-7 days at 25 degrees C. (dermatophytes). At least two independent assays were performed for all tested strains.
# A. flavus F44 = assay type: cell-based
# Description: as §1, §3
# [1] = test system: Cryptococcus neoformans CECT 1078; assay type: cell-based
# Description: as §1, §3
# [2] = test system: Aspergillus fumigatus ATCC 204305; assay type: cell-based
# Description: as §1, §3
# C. glabrata DSY562 = assay type: cell-based
# Description: as §1, §3
# T. mentagrophytes FF7 = assay type: cell-based
# Description: as §1, §3
# C. glabrata DSY565 = assay type: cell-based
# Description: as §1, §3
# Lichtheimia spp. = assay type: cell-based
# Description: as §1, §3
# A. niger ATCC 16404 = assay type: cell-based
# Description: as §1, §3
# Fusarium oxysporum FF115 = assay type: cell-based
# Description: as §1, §3
# Scedosporium spp. = assay type: cell-based
# Description: as §1, §3
# Mucor spp. = assay type: cell-based
# Description: as §1, §3
# [3] = C. krusei ATCC 6258, intrinsically resistant to fluconazole
# [4] = Fusarium solani FF125, intrinsically resistant to fluconazole
# [5] = A. flavus F44, intrinsically resistant to fluconazole
# [6] = Aspergillus fumigatus ATCC 204305, intrinsically resistant to fluconazole
# [7] = C. glabrata DSY565, resistant to fluconazole or azoles
# [8] = Lichtheimia spp., intrinsically resistant to fluconazole
# [9] = A. niger ATCC 16404, intrinsically resistant to fluconazole
# [10] = Fusarium oxysporum FF115, intrinsically resistant to fluconazole
# [11] = Mucor spp., intrinsically resistant to fluconazole
SMILES,MLC (A. fumigatus C111) [µg/mL],MLC (C. krusei ATCC 6258; [3]) [µg/mL],MLC (Fusarium solani FF125; [4]) [µg/mL],MLC (A. flavus F44; [5]) [µg/mL],MLC [1] [µg/mL],"MLC [2, 6] [µg/mL]",MLC (C. glabrata DSY562) [µg/mL],MLC (T. mentagrophytes FF7) [µg/mL],MLC (C. glabrata DSY565; [7]) [µg/mL],MLC (Lichtheimia spp.; [8]) [µg/mL],MLC (A. niger ATCC 16404; [9]) [µg/mL],MLC (Fusarium oxysporum FF115; [10]) [µg/mL],MLC (Scedosporium spp.) [µg/mL],MLC (Mucor spp.; [11]) [µg/mL],other results
"C[C@H](CCC(=O)NCCN)[C@H]1CC[C@H]2[C@@H]3CC[C@@H]4C[C@H](O)CC[C@]4(C)[C@H]3C[C@H](O)[C@]12C [Compound 1, (R)—N-(2-aminoethyl)-4-((3R,5R,8R,9S,10S,12S,13R,14S,17R)-3,12-dihydroxy-10,13-dimethylhexadecahydro-1H-cyclopenta[a]phenanthren-17-yl) pentanamida]",>128,64,>128,>128,64,≥128,64,64,64,>128,128,≥128,128,64,"MIC (A. fumigatus C111): 128 µg/mL; MIC (C. krusei ATCC 6258; [3]): 64 µg/mL; MIC (Fusarium solani FF125; [4]): 64 µg/mL; MIC (A. flavus F44; [5]): ≥128 µg/mL; MIC [1]: 32 µg/mL; MIC [2, 6]: 128 µg/mL; MIC (C. glabrata DSY562): 64 µg/mL; MIC (T. mentagrophytes FF7): 32 µg/mL; MIC (C. glabrata DSY565; [7]): 64 µg/mL; MIC (Lichtheimia spp.; [8]): 64 µg/mL; MIC (A. niger ATCC 16404; [9]): 64 µg/mL; MIC (Fusarium oxysporum FF115; [10]): 128 µg/mL; MIC (Scedosporium spp.): 64 µg/mL; MIC (Mucor spp.; [11]): 64 µg/mL"
"OC(Cn1cncn1)(Cn1cncn1)c1ccc(F)cc1F [Fluconazole, reference compound]",>128,>128,>128,>128,>32,>128,>128,32,>128,>128,>128,>128,16,>128,"MIC (A. fumigatus C111; Aspergillus fumigatus, read-out: MIC): ≥ 128 µg/mL; MIC (C. krusei ATCC 6258; Pichia kudriavzevii, ATCC6258, read-out: MIC): 32 µg/mL; MIC (Fusarium solani FF125; Fusarium solani, FF125, read-out: MIC): ≥ 128 µg/mL; MIC (A. flavus F44; Aspergillus flavus, F44, read-out: MIC): 128 µg/mL; MIC ([1]; CECT1078, read-out: MIC): 8 µg/mL; MIC ([2]; Aspergillus fumigatus, ATCC204305, read-out: MIC): ≥ 128 µg/mL; MIC (C. glabrata DSY562; Nakaseomyces glabratus, read-out: MIC): 4 µg/mL; MIC (T. mentagrophytes FF7; Trichophyton mentagrophytes, read-out: MIC): 8 µg/mL; MIC (C. glabrata DSY565; Nakaseomyces glabratus, DSY565): 128 µg/mL; MIC (Lichtheimia spp.; Lichtheimia, read-out: MIC): 64 µg/mL; MIC (A. niger ATCC 16404; Aspergillus niger, ATCC16404, read-out: MIC): ≥ 128 µg/mL; MIC (Fusarium oxysporum FF115; Fusarium oxysporum, FF115, read-out: MIC): 64 µg/mL; MIC (Scedosporium spp.; read-out: MIC): 4 µg/mL; MIC (Mucor spp.; Mucor, read-out: MIC): > 128 µg/mL"
